One may read the EC50 as the concentration needed to bring the measured effect to its halfway point. As a reminder, the IC50 is the midpoint of a concentration-inhibition curve.

The structures appear in SMILES notation.

We go through 14 molecules from US20100303758A1, “Novel Glucocorticoid Receptor Agonists” (priority 2009, published 2010).

In one assay the target is T1, human GR (Homo sapiens, UniProt P04150).
T1 construct: SW1353 naturally expresses human GR; endogenous in cells; host or cells: human chondrosarcoma cell-line SW1353 stably transfected with an MMTV-luciferase reporter construct
T1 sequence (P04150 1-777): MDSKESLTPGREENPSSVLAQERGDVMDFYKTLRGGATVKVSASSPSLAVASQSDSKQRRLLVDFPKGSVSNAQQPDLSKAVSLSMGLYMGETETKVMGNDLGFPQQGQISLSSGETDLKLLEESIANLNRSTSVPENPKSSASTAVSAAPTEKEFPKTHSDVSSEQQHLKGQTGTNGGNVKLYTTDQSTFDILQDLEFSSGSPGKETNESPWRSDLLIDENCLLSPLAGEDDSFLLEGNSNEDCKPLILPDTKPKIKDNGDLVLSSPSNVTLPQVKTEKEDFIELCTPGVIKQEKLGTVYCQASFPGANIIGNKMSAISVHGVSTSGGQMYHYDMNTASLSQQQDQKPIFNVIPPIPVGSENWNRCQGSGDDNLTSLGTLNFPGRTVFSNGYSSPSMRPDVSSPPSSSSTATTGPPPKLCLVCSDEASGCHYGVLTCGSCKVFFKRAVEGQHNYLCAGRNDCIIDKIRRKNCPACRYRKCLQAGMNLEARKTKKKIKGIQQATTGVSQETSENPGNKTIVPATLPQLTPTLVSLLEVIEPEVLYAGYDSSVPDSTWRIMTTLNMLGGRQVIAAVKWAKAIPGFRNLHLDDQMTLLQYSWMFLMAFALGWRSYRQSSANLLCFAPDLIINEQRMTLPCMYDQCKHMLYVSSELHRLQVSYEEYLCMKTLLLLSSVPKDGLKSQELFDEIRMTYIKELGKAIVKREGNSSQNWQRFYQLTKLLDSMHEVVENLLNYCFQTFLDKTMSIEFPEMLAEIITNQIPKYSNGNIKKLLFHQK
Nature of the assay: GR agonist potency, MMTV-luciferase reporter in SW1353 cells. Format: cell-based. The settings on record: human chondrosarcoma cell-line SW1353 stably transfected with MMTV-luciferase reporter; approx. 18 hours; data as percentage of 1 μM dexamethasone positive control. The procedure: Glucococorticoid receptor (GR) agonist potency was determined in the human chondrosarcoma cell-line SW1353 stably transfected with an MMTV-luciferase reporter construct. SW1353 naturally expresses human GR, which on binding a glucocorticoid agonist activates glucocorticoid response elements within the MMTV promoter, driving expression of the luciferase gene.
Frozen SW1353 cells were revived in DMEM medium, without sodium pyruvate or phenol red, supplemented with 2 mM L-glutamine, 1 μg/ml insulin, 2 mg/ml lactalbumin hydrosylate and 0.5 μg/ml ascorbate. Cells were seeded at approximately 5000 cells/well (35 μl/well) in 384-well clear bottom, tissue culture treated plates. Steroid dose-response dilutions were prepared in steroid diluent (PBS containing 2.5% (v/v) DMSO and 0.05% (v/v) pluronic detergent) and 5 μl added to each well. The volume was made up to 50 μl per well with steroid diluent. Positive control wells contained 1 μM dexamethasone. Plates were incubated for approximately 18 hours at 37° C. in an air/5% CO2 atmosphere in a humidified incubator before Britelite reagent (10 μl; Perkin-Elmer) was added to each well. Each plate was incubated for 2 minutes in the dark and luminescence quantified using a LJL Biosystems Analyst luminometer. Data for test compounds (expressed as percentage of the dexamethasone positive control) were used to construct dose response curves from which EC50 values were estimated.

The nature of assay [1]: Inhibition of TNF-α release from LPS stimulated isolated human PBMC. In kind it is cell-based. The settings on record: Homo sapiens, PBMC, read-out: IC50 (nM) for inhibition of TNF-α release. The procedure:
The anti-inflammatory activity of the compounds against human leukocytes in vitro was also evaluated by determining inhibition of tumour necrosis factor-α (TNF-α) release from lipopolysaccharide (LPS) stimulated isolated human peripheral mononuclear cells (PBMC).
Peripheral venous blood from healthy, non-medicated donors was collected using ethylenediaminetetraacetic acid (EDTA) as the anti-coagulant. For PBMC preparation, samples of blood were diluted 1:1 with sterile phosphate buffered saline and then separated using ACCUSPIN™ System-Histopaque®-1077 tubes (Sigma-Aldrich, St Louis, Mo.), centrifuged at 400 g for 35 minutes. Buffy coat cells were removed into PBS, centrifuged at 200 g for 10 minutes and re-suspended in PBMC assay buffer (Hanks Balanced Salt Solution, 0.28% [w/v] 4-[2-hydroxyethyl]-1-piperazineethanesulfonic acid [HEPES], 0.01% [w/v] low-endotoxin bovine serum albumin [BSA]. A differential white cell count was performed and PBMC's diluted to 1×10^6 lymphocytes per ml in PBMC assay buffer.
Test compounds were dissolved in DMSO and diluted in PBMC assay buffer (final DMSO concentration 1%) to cover an appropriate concentration range, e.g 0.001 nM to 10000 nM. Samples of test compound solution or vehicle (20 μl) were added into 96-well tissue culture treated plates (Corning) and PBMC (160 μl) added to each well. The assay mixtures were incubated at 37° C. for 1 h in a humidified incubator containing an atmosphere of air supplemented with 5% CO2 before adding LPS (20 μl of 100 ng/ml for PBMC). Plates were returned to the incubator for a further 18 hours, and then centrifuged before recovery of samples of supernatant. TNF-α in the samples was determined using an enzyme-linked immunosorbent assay (ELISA) (Invitrogen kit no CHC-1754; Invitrogen Carlsbad, Calif.) and following the manufacturers instructions. Dose response curves were constructed from which IC50 values were calculated.

Regarding `C[C@]12C=CC(=O)C=C1CC[C@H]1[C@@H]3CC[C@](OC(=O)c4ccc(Sc5ccc(O)c(Cl)c5)cc4)(C(=O)OCC#N)[C@@]3(C)C[C@H](O)[C@@]12F` [Example 20, cyanomethyl (11beta,17alpha)-17-({4-[(3-chloro-4-hydroxyphenyl)thio]-benzoyl}oxy)-9-fluoro-11-hydroxy-3-oxoandrosta-1,4-diene-17-carboxylate], the EC50 at human GR was 39.2 nM. Further, in assay [1], the IC50 was determined as 0.29 nM.
For `C[C@]12C=CC(=O)C=C1CC[C@H]1[C@@H]3CC[C@](OC(=O)c4ccc(Cc5ccccc5)cc4)(C(=O)SCF)[C@@]3(C)C[C@H](O)[C@@]12F` [Example 22, (11beta,17alpha)-9-fluoro-17-{[(fluoromethyl)thio]carbonyl}-11-hydroxy-3-oxoandrosta-1,4-dien-17-yl 4-benzylbenzoate], in that order: 69.9 nM and 0.087 nM.
As for `C[C@]12C=CC(=O)C=C1CC[C@H]1[C@@H]3CC[C@](OC(=O)c4ccc(Oc5ccc(O)cc5)cc4)(C(=O)OCC#N)[C@@]3(C)C[C@H](O)[C@@]12F` [Example 16, cyanomethyl (11beta,17alpha)-9-fluoro-11-hydroxy-17-{[4-(4-hydroxyphenoxy)benzoyl]oxy}-3-oxoandrosta-1,4-diene-17-carboxylate], on human GR, it took 24 nM to reach a half-maximal effect (EC50). Besides, the IC50 in assay [1] turned out to be 0.067 nM.
For `CSc1ccc(Sc2ccc(C(=O)O[C@]3(C(=O)OCF)[C@H](C)C[C@H]4[C@@H]5C[C@H](F)C6=CC(=O)C=C[C@]6(C)[C@@]5(F)[C@@H](O)C[C@@]43C)cc2)cc1` [Example 50, Fluoromethyl (6alpha,11beta,16alpha, 17alpha)-6,9-difluoro-11-hydroxy-16-methyl-17-[(4-{[4-(methylthio)phenyl]thio}benzoyl)oxy]-3-oxoandrosta-1,4-diene-17-carboxylate], in that order: 11.5 nM and 0.052 nM.
For `C[C@]12C=CC(=O)C=C1[C@@H](F)C[C@H]1[C@@H]3CC[C@](OC(=O)c4ccc(-c5ccccc5)cc4)(C(=O)OCC#N)[C@@]3(C)C[C@H](O)[C@@]12F` [Example 2, Cyanomethyl(6alpha,11beta,17alpha)-17-[(biphenyl-4-ylcarbonyl)oxy]-6,9-difluoro-11-hydroxy-3-oxoandrosta-1,4-diene-17-carboxylate], at human GR, it took 115 nM to reach a half-maximal effect (EC50). For the same molecule, in assay [1], the IC50 came to 0.373 nM.
Turning to `C[C@]12C=CC(=O)C=C1CC[C@H]1[C@@H]3CC[C@](OC(=O)c4ccc(Oc5ccc(O)c(Cl)c5)cc4)(C(=O)SCC#N)[C@@]3(C)C[C@H](O)[C@@]12F` [Example 12, (11beta,17alpha)-17-{[(cyanomethyl)thio]-carbonyl}-9-fluoro-11-hydroxy-3-oxoandrosta-1,4-dien-17-yl 4-(3-chloro-4-hydroxyphenoxy)benzoate], a half-maximal effect on human GR (EC50) was put at 117 nM. Moreover, the IC50 in assay [1] was 0.345 nM.
Turning to `C[C@]12C=CC(=O)C=C1CC[C@H]1[C@@H]3CC[C@](OC(=O)c4ccc(Sc5ccc(O)c(Cl)c5)cc4)(C(=O)SCC#N)[C@@]3(C)C[C@H](O)[C@@]12F` [Example 13, (11beta,17alpha)-17-{[(cyanomethyl)thio]carbonyl}-9-fluoro-11-hydroxy-3-oxoandrosta-1,4-dien-17-yl 4-[(3-chloro-4-hydroxyphenyl)thio]benzoate], on human GR, the concentration giving a half-maximal response (EC50) was determined as 80.9 nM. The IC50 in assay [1] amounted to 0.799 nM.
For `C[C@]12C=CC(=O)C=C1CC[C@H]1[C@@H]3CC[C@](OC(=O)c4ccc(Oc5ccccc5)cc4)(C(=O)SCC#N)[C@@]3(C)C[C@H](O)[C@@]12F` [Example 29, (11beta,17alpha)-17-{[(cyanomethyl)-thio]carbonyl}-9-fluoro-11-hydroxy-3-oxoandrosta-1,4-dien-17-yl 4-phenoxybenzoate], in that order: 78.4 nM and 0.156 nM.
For the molecule `C[C@]12C=CC(=O)C=C1CC[C@H]1[C@@H]3CC[C@](OC(=O)c4ccc(Oc5ccc(O)nc5)cc4)(C(=O)OCC#N)[C@@]3(C)C[C@H](O)[C@@]12F` [Example 36, cyanomethyl (11beta,17alpha)-9-fluoro-11-hydroxy-17-({4-[(6-hydroxypyridin-3-yl)oxy]benzoyl}-oxy)-3-oxoandrosta-1,4-diene-17-carboxylate], the 50% effective concentration (EC50) at human GR worked out at 16.3 nM. For the same molecule, the IC50 in assay [1] came to 0.167 nM.
Consider `C[C@]12C=CC(=O)C=C1CC[C@H]1[C@@H]3CC[C@](OC(=O)c4ccc(Sc5ccc(Cl)c(O)c5)cc4)(C(=O)OCC#N)[C@@]3(C)C[C@H](O)[C@@]12F` [Example 39, cyanomethyl(11beta,17alpha)-17-({4-[(4-chloro-3-hydroxyphenyl)thio]benzoyl}oxy)-9-fluoro-11-hydroxy-3-oxoandrosta-1,4-diene-17-carboxylate], for which, on human GR, the EC50 turned out to be 44.1 nM. In addition, the IC50 in assay [1] was determined as 0.615 nM.
In the case of `C[C@]12C=CC(=O)C=C1[C@@H](F)C[C@H]1[C@@H]3CC[C@](OC(=O)c4ccc(Oc5ccccc5)cc4)(C(=O)OCC#N)[C@@]3(C)C[C@H](O)[C@@]12F` [Example 4, cyanomethyl (6alpha,11beta,17alpha)-6,9-difluoro-11-hydroxy-3-oxo-17-[(4-phenoxybenzoyl)oxy]androsta-1,4-diene-17-carboxylate], the EC50 at human GR was 23.6 nM. In addition, the half-maximal inhibitory concentration (IC50) in assay [1] worked out at 0.154 nM.
In turn, `CSc1cccc(Sc2ccc(C(=O)O[C@]3(C(=O)OCF)[C@H](C)C[C@H]4[C@@H]5C[C@H](F)C6=CC(=O)C=C[C@]6(C)[C@@]5(F)[C@@H](O)C[C@@]43C)cc2)c1` [Example 53] gave a concentration for a half-maximal effect (EC50) at human GR of 11.8 nM. The IC50 in assay [1] amounted to 0.086 nM.
As to `C[C@@H]1C[C@H]2[C@@H]3C[C@H](F)C4=CC(=O)C=C[C@]4(C)[C@@]3(F)[C@@H](O)C[C@]2(C)[C@@]1(OC(=O)c1ccc(Oc2ccc(O)c(Cl)c2)cc1)C(=O)OCF` [Example 44, Fluoromethyl (6alpha,11beta,16alpha,17alpha)-17-{[4-(3-chloro-4-hydroxyphenoxy)benzoyl]oxy}-6,9-difluoro-11-hydroxy-16-methyl-3-oxoandrosta-1,4-diene-17-carboxylate], a half-maximal response on human GR (EC50) required 6.7 nM. Also, the IC50 in assay [1] came out at 0.029 nM.
`C[C@]12C=CC(=O)C=C1CC[C@H]1[C@@H]3CC[C@](OC(=O)c4ccc(Oc5ccc(O)c(Cl)c5)cc4)(C(=O)OCC#N)[C@@]3(C)C[C@H](O)[C@@]12F` [Example 37, cyanomethyl (11beta,17alpha)-17-{[4-(3-chloro-4-hydroxybhenoxy)-benzoyl]oxy}-9-fluoro-11-hydroxy-3-oxoandrosta-1,4-diene-17-carboxylate]: the concentration giving a half-maximal response (EC50) on human GR amounted to 39.7 nM. In addition, the IC50 in assay [1] is 0.201 nM.
